Measurements from ChEMBL document CHEMBL2434896, “Carbonic anhydrase inhibitors. Synthesis of heterocyclic 4-substituted pyridine-3-sulfonamide derivatives and their inhibition of the human cytosolic isozymes I and II and transmembrane tumor-associated isozymes IX and XII” (Eur J Med Chem, 2013).
pKi: −log10 of the molar value. Active and inactive are the calls of the source. The rule behind the calls is not given here.

Experiments:
NCI/ADR-RES = experiment: Growth inhibition of human NCI-ADR-RES cells at 10 uM after 48 hrs by sulforhodamine B assay; assay type: functional
CAKI-1 = experiment: Growth inhibition of human CAKI-1 cells at 10 uM after 48 hrs by sulforhodamine B assay; assay type: functional; details: CAKI-1, 48 h, read-out: GI
HOP-62 = experiment: Growth inhibition of human HOP62 cells at 10 uM after 48 hrs by sulforhodamine B assay; assay type: functional
SK-OV-3 = experiment: Growth inhibition of human SKOV3 cells at 10 uM after 48 hrs by sulforhodamine B assay; assay type: functional
T47D = experiment: Growth inhibition of human T47D cells at 10 uM after 48 hrs by sulforhodamine B assay; assay type: functional; details: read-out: GI
TK-10 = experiment: Growth inhibition of human TK10 cells at 10 uM after 48 hrs by sulforhodamine B assay; assay type: functional
SF-295 = experiment: Growth inhibition of human SF295 cells at 10 uM after 48 hrs by sulforhodamine B assay; assay type: functional; details: SF-295, 48 h, read-out: GI
DU-145 = experiment: Growth inhibition of human DU145 cells at 10 uM after 48 hrs by sulforhodamine B assay; assay type: functional
RPMI-8226 = experiment: Growth inhibition of human RPMI8226 cells at 10 uM after 48 hrs by sulforhodamine B assay; assay type: functional; details: RPMI-8226, 48 h, read-out: GI
UACC-62 = experiment: Growth inhibition of human UACC62 cells at 10 uM after 48 hrs by sulforhodamine B assay; assay type: functional; details: UACC-62, 48 h, read-out: GI
MOLT-4 = experiment: Growth inhibition of human MOLT4 cells at 10 uM after 48 hrs by sulforhodamine B assay; assay type: functional; details: MOLT-4, 48 h, read-out: GI
HL-60(TB) = experiment: Growth inhibition of human HL-60(TB) cells at 10 uM after 48 hrs by sulforhodamine B assay; assay type: functional; details: HL-60, 48 h, read-out: GI
Carbonic anhydrase 9 = Carbonic anhydrase 9 (Homo sapiens, UniProt Q16790); experiment: Inhibition of human carbonic anhydrase 9 after 15 mins by stopped flow CO2 hydration assay
A498 = experiment: Growth inhibition of human A498 cells at 10 uM after 48 hrs by sulforhodamine B assay; assay type: functional
NCI-H460 = experiment: Growth inhibition of human NCI-H460 cells at 10 uM after 48 hrs by sulforhodamine B assay; assay type: functional
Hs-578T = experiment: Growth inhibition of human Hs 578T cells at 10 uM after 48 hrs by sulforhodamine B assay; assay type: functional
SF-268 = experiment: Growth inhibition of human SF268 cells at 10 uM after 48 hrs by sulforhodamine B assay; assay type: functional
COLO 205 = experiment: Growth inhibition of human COLO205 cells at 10 uM after 48 hrs by sulforhodamine B assay; assay type: functional
OVCAR-4 = experiment: Growth inhibition of human OVCAR4 cells at 10 uM after 48 hrs by sulforhodamine B assay; assay type: functional
BT-549 = experiment: Growth inhibition of human BT549 cells at 10 uM after 48 hrs by sulforhodamine B assay; assay type: functional
HCC 2998 = experiment: Growth inhibition of human HCC2998 cells at 10 uM after 48 hrs by sulforhodamine B assay; assay type: functional
NCI-H226 = experiment: Growth inhibition of human NCI-H226 cells at 10 uM after 48 hrs by sulforhodamine B assay; assay type: functional; details: NCI-H226, 48 h, read-out: GI
MCF7 = experiment: Growth inhibition of human MCF7 cells at 10 uM after 48 hrs by sulforhodamine B assay; assay type: functional
LOX IMVI = experiment: Growth inhibition of human LOXIMVI cells at 10 uM after 48 hrs by sulforhodamine B assay; assay type: functional
HT-29 = experiment: Growth inhibition of human HT-29 cells at 10 uM after 48 hrs by sulforhodamine B assay; assay type: functional; details: HT-29, 48 h, read-out: GI
SK-MEL-28 = experiment: Growth inhibition of human SK-MEL-28 cells at 10 uM after 48 hrs by sulforhodamine B assay; assay type: functional, cell-based
SF-539 = experiment: Growth inhibition of human SF539 cells at 10 uM after 48 hrs by sulforhodamine B assay; assay type: functional; details: SF-539, 48 h, read-out: GI
SNB-75 = experiment: Growth inhibition of human SNB75 cells at 10 uM after 48 hrs by sulforhodamine B assay; assay type: functional
SK-MEL-5 = experiment: Growth inhibition of human SK-MEL-5 cells at 10 uM after 48 hrs by sulforhodamine B assay; assay type: functional; details: SK-MEL-5, 48 h, read-out: GI
IGROV-1 = experiment: Growth inhibition of human IGROV1 cells at 10 uM after 48 hrs by sulforhodamine B assay; assay type: functional; details: IGROV-1, 48 h, read-out: GI
UO-31 = experiment: Growth inhibition of human UO31 cells at 10 uM after 48 hrs by sulforhodamine B assay; assay type: functional; details: UO-31, 48 h, read-out: GI
CCRF-CEM = experiment: Growth inhibition of human CCRF-CEM cells at 10 uM after 48 hrs by sulforhodamine B assay; assay type: functional
RXF 393 = experiment: Growth inhibition of human RXF393 cells at 10 uM after 48 hrs by sulforhodamine B assay; assay type: functional
SNB-19 = experiment: Growth inhibition of human SNB19 cells at 10 uM after 48 hrs by sulforhodamine B assay; assay type: functional
OVCAR-3 = experiment: Growth inhibition of human OVCAR3 cells at 10 uM after 48 hrs by sulforhodamine B assay; assay type: functional
SR = experiment: Growth inhibition of human SR cells at 10 uM after 48 hrs by sulforhodamine B assay; assay type: functional; details: read-out: GI
KM12 = experiment: Growth inhibition of human KM12 cells at 10 uM after 48 hrs by sulforhodamine B assay; assay type: functional
OVCAR-5 = experiment: Growth inhibition of human OVCAR5 cells at 10 uM after 48 hrs by sulforhodamine B assay; assay type: functional
OVCAR-8 = experiment: Growth inhibition of human OVCAR8 cells at 10 uM after 48 hrs by sulforhodamine B assay; assay type: functional; details: OVCAR-8, 48 h, read-out: GI
MDA-MB-435 = experiment: Growth inhibition of human MDA-MB-435 cells at 10 uM after 48 hrs by sulforhodamine B assay; assay type: functional
UACC-257 = experiment: Growth inhibition of human UACC257 cells at 10 uM after 48 hrs by sulforhodamine B assay; assay type: functional
NCI-H322M = experiment: Growth inhibition of human NCI-H322M cells at 10 uM after 48 hrs by sulforhodamine B assay; assay type: functional; details: read-out: GI
786-0 = experiment: Growth inhibition of human 786-0 cells at 10 uM after 48 hrs by sulforhodamine B assay; assay type: functional
SK-MEL-2 = experiment: Growth inhibition of human SK-MEL-2 cells at 10 uM after 48 hrs by sulforhodamine B assay; assay type: functional
MDA-MB-468 = experiment: Growth inhibition of human MDA-MB-468 cells at 10 uM after 48 hrs by sulforhodamine B assay; assay type: functional; details: MDA-MB-468, 48 h, read-out: GI
K562 = experiment: Growth inhibition of human K562 cells at 10 uM after 48 hrs by sulforhodamine B assay; assay type: functional; details: K562, 48 h, read-out: GI

SMILES: Cc1ccc(C)c(N2CCN(c3ccncc3S(N)(=O)=O)CC2)c1
- growth inhibition (GI) (NCI/ADR-RES): inactive
- inhibition of growth at 10 µM (CAKI-1): 9%
- growth inhibition (GI) (HOP-62): inactive
- growth inhibition (GI) (SK-OV-3): inactive
- inhibition of growth at 10 µM (T47D): 15%
- inhibition of growth at 10 µM (TK-10; TK-10, 48 h, read-out: GI): 7%
- inhibition of growth at 10 µM (SF-295): 1%
- growth inhibition (GI) (DU-145): inactive
- inhibition of growth at 10 µM (RPMI-8226): 8%
- inhibition of growth at 10 µM (UACC-62): 7%
- inhibition of growth at 10 µM (MOLT-4): 11%
- inhibition of growth at 10 µM (HL-60(TB)): 6%
- pKi (Carbonic anhydrase 9): 6.26
- inhibition of growth at 10 µM (A498; A498, 48 h, read-out: GI): 16%
- growth inhibition (GI) (NCI-H460): inactive
- growth inhibition (GI) (Hs-578T): inactive
- growth inhibition (GI) (SF-268): inactive
- growth inhibition (GI) (COLO 205): inactive
- growth inhibition (GI) (OVCAR-4): inactive
- inhibition of growth at 10 µM (BT-549; BT-549, 48 h, read-out: GI): 8%
- growth inhibition (GI) (HCC 2998): inactive
- inhibition of growth at 10 µM (NCI-H226): 3%
- growth inhibition (GI) (MCF7): inactive
- growth inhibition (GI) (LOX IMVI): inactive
- inhibition of growth at 10 µM (HT-29): 9%
- growth inhibition (GI) (SK-MEL-28): inactive
- inhibition of growth at 10 µM (SF-539): 1%
- inhibition of growth at 10 µM (SNB-75; SNB-75, 48 h, read-out: GI): 9%
- inhibition of growth at 10 µM (SK-MEL-5): 3%
- inhibition of growth at 10 µM (IGROV-1): 6%
- inhibition of growth at 10 µM (UO-31): 15%
- growth inhibition (GI) (CCRF-CEM): inactive
- growth inhibition (GI) (RXF 393): inactive
- growth inhibition (GI) (SNB-19): inactive
- growth inhibition (GI) (OVCAR-3): inactive
- inhibition of growth at 10 µM (SR): 10%
- growth inhibition (GI) (KM12): inactive
- inhibition of growth at 10 µM (OVCAR-5; OVCAR-5, 48 h, read-out: GI): 3%
- inhibition of growth at 10 µM (OVCAR-8): 4%
- growth inhibition (GI) (MDA-MB-435): inactive
- growth inhibition (GI) (UACC-257): inactive
- inhibition of growth at 10 µM (NCI-H322M): 7%
- growth inhibition (GI) (786-0): inactive
- growth inhibition (GI) (SK-MEL-2): inactive

SMILES: NS(=O)(=O)c1cnccc1N1CCN(c2ccc(Cl)cc2)CC1
- growth inhibition (GI) (NCI/ADR-RES): inactive
- inhibition of growth at 10 µM (CAKI-1): 15%
- growth inhibition (GI) (HOP-62): inactive
- growth inhibition (GI) (SK-OV-3): inactive
- inhibition of growth at 10 µM (T47D): 32%
- inhibition of growth at 10 µM (MDA-MB-468): 31%
- growth inhibition (GI) (TK-10): inactive
- inhibition of growth at 10 µM (SF-295): 14%
- growth inhibition (GI) (DU-145): inactive
- inhibition of growth at 10 µM (RPMI-8226): 25%
- inhibition of growth at 10 µM (UACC-62): 16%
- inhibition of growth at 10 µM (MOLT-4): 25%
- inhibition of growth at 10 µM (HL-60(TB)): 1%
- pKi (Carbonic anhydrase 9): 6.87
- growth inhibition (GI) (A498): inactive
- growth inhibition (GI) (NCI-H460): inactive
- growth inhibition (GI) (Hs-578T): inactive
- growth inhibition (GI) (SF-268): inactive
- growth inhibition (GI) (COLO 205): inactive
- inhibition of growth at 10 µM (OVCAR-4; OVCAR-4, 48 h, read-out: GI): 28%
- growth inhibition (GI) (BT-549): inactive
- growth inhibition (GI) (HCC 2998): inactive
- inhibition of growth at 10 µM (NCI-H226): 13%
- inhibition of growth at 10 µM (MCF7; MCF7, 48 h, read-out: GI): 7%
- inhibition of growth at 10 µM (LOX IMVI; read-out: GI): 4%
- inhibition of growth at 10 µM (HT-29): 7%
- growth inhibition (GI) (SK-MEL-28): inactive
- inhibition of growth at 10 µM (SF-539): 8%
- growth inhibition (GI) (SNB-75): inactive
- inhibition of growth at 10 µM (SK-MEL-5): 28%
- inhibition of growth at 10 µM (IGROV-1): 10%
- inhibition of growth at 10 µM (UO-31): 20%
- inhibition of growth at 10 µM (CCRF-CEM; read-out: GI): 17%
- growth inhibition (GI) (RXF 393): inactive
- growth inhibition (GI) (SNB-19): inactive
- growth inhibition (GI) (OVCAR-3): inactive
- inhibition of growth at 10 µM (SR): 11%
- growth inhibition (GI) (KM12): inactive
- growth inhibition (GI) (OVCAR-5): inactive
- inhibition of growth at 10 µM (MDA-MB-435; MDA-MB-435, 48 h, read-out: GI): 1%
- inhibition of growth at 10 µM (K562): 28%
- inhibition of growth at 10 µM (NCI-H322M): 11%
- growth inhibition (GI) (786-0): inactive
- growth inhibition (GI) (SK-MEL-2): inactive
